The first assay deals with Utrophin A promoter linked to a luciferase reporter gene. In words: Luciferase reporter assay (murine H2K cells). The following applies: Mus musculus, H2K mdx, luciferase level relative to control; H2K/mdx/Utro A reporter cells; compound 10 μM final concentration; read-out: Activity. Type of assay: cell-based. A digest of the protocol: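 Immortalized mdx mouse H2K myoblasts stably carrying a ~5 kb utrophin A promoter–luciferase construct, kept at 33° C, 10% CO2. After 24 hrs plating, compound added at 10 μM final for 48 hrs; luciferase light output read after in-situ lysis.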
A general note: A reporter such as luciferase makes a cellular process visible.
Regarding `O=S(=O)(O)c1ccc2oc(-c3ccc(Cl)cc3)nc2c1` [Example 312, 2-(4-chlorophenyl)benzo[d]oxazole-5-sulfonic acid], the activity at 10 µM was under 200%. The same measure, in the same setting: under `CCN(CC)c1ccc(-c2nc3cc(NC(=O)c4cc(Cl)cc(Cl)c4)ccc3o2)cc1` [Example 70, 3,5-dichloro-N-(2-(4-(diethylamino)phenyl)benzo[d]oxazol-5-yl)benzamide] stands under 200%; under `O=[N+]([O-])c1cc2oc(-c3ccc4c(c3)OCO4)nc2cc1Cl` [Example 371, 2-(benzo[d][1,3]dioxol-5-yl)-5-chloro-6-nitrobenzo[d]oxazole], 301 to 400%; under `Nc1ccc2oc(-c3ccc4c(c3)OCO4)nc2c1` [Example 299, 2-(benzo[d][1,3]dioxol-5-yl)benzo[d]oxazol-5-amine], 201 to 300%. On the same count and under the same terms, the result for `CCN(CC)c1ccc(-c2nc3cc(C(=O)O)ccc3o2)cc1` [Example 152, 2-(4-(diethylamino)phenyl)benzo[d]oxazole-5-carboxylic acid] reads under 200%; that for `CCC(=O)N(C)c1ccc2oc(-c3ccc(Cl)cc3)nc2c1` [Example 219, N-(2-(4-chlorophenyl)benzo[d]oxazol-5-yl)-N-methylpropionamide], 301 to 400%; that for `CCCCNc1ccc2oc(-c3ccc(Cl)cc3)nc2c1` [Example 182, N-butyl-2-(4-chlorophenyl)benzo[d]oxazol-5-amine], 301 to 400%.

Turning to `O=C(Nc1ccc2oc(-c3ccc(F)cc3)nc2c1)c1ccco1` [Example 2, N-(2-(4-fluorophenyl)benzo[d]oxazol-5-yl)furan-2-carboxamide], the activity at 10 µM was under 200%. Still for that read-out and setting: under `CC(C)C(=O)Nc1ccc2oc(-c3cccc(Cl)c3F)nc2c1` [Example 342, N-(2-(3-chloro-2-fluorophenyl)benzo[d]oxazol-5-yl)isobutyramide] stands over 401%. In the case of `O=C(Nc1ccc2oc(-c3ccc(Cl)cc3)nc2c1)[C@@H]1CCCN1` [Example 362, (S)-N-(2-(4-chlorophenyl)benzo[d]oxazol-5-yl)pyrrolidine-2-carboxamide], the activity at 10 µM is 201 to 300%. Turning to `O=C(CC(F)(F)F)Nc1ccc2oc(-c3cccc(Cl)c3Cl)nc2c1` [Example 363, N-(2-(2,3-dichlorophenyl)benzo[d]oxazol-5-yl)-3,3,3-trifluoropropanamide], the activity at 10 µM was over 401%.

For `CCS(=O)(=O)c1ccc2oc(-c3ccc(Cl)cn3)nc2c1` [Example 393, 2-(5-chloropyridin-2-yl)-5-(ethylsulfonyl)benzo[d]oxazole], the activity at 10 µM lay in the range of 201 to 300%. Same read-out and setting: the result for `O=[N+]([O-])c1ccc2oc(N3CCOCC3)nc2c1` [Example 357, 2-morpholino-5-nitrobenzo[d]oxazole] reads under 200%; that for `COc1ccc2cc(-c3nc4cc(N)ccc4o3)ccc2c1` [Example 404, 2-(6-methoxynaphthalen-2-yl)benzo[d]oxazol-5-amine], 201 to 300%.

On to `O=[N+]([O-])c1ccc2oc(-c3ccccc3O)nc2c1` [Example 21, 2-(5-nitrobenzo[d]oxazol-2-yl)phenol], for which the activity at 10 µM is under 200%. The same measure, in the same setting: the result for `CC(C)C(=O)Nc1ccc2cc(-c3ccccc3)[nH]c2c1` [Example 375, N-(2-phenyl-1H-indol-6-yl)isobutyramide] reads under 200%; that for `CC(=O)Sc1ccc2oc(-c3ccc(Cl)cc3)nc2c1` [Example 407, S-2-(4-chlorophenyl)benzo[d]oxazol-5-yl ethanethioate], under 200%.

Take `Cc1ccc(-c2nc3cc(NC(=O)CC(F)(F)F)ccc3o2)cc1` [Example 254, 3,3,3-trifluoro-N-(2-p-tolylbenzo[d]oxazol-5-yl)propanamide]: the activity at 10 µM fell in the range of 201 to 300%. Still for that read-out and setting: under `O=[N+]([O-])c1ccc2oc(SCc3ccc(Cl)cc3)nc2c1` [Example 379, 2-(4-chlorobenzylthio)-5-nitrobenzo[d]oxazole] stands under 200%; under `Nc1ccc2oc(-c3cccc(C(F)(F)F)c3)nc2c1` [Example 174, 2-(3-(trifluoromethyl)phenyl)benzo[d]oxazol-5-amine], under 200%; under `CC(C)C(=O)Nc1ccc2oc(-c3cccc(N(C)C)c3)nc2c1` [Example 204, N-(2-(3-(dimethylamino)phenyl)benzo[d]oxazol-5-yl)isobutyramide], over 401%.

Turning to `CC(C)C(=O)Nc1ccc2oc(-c3ccc(Cl)cc3Cl)nc2c1` [Example 257, N-(2-(2,4-dichlorophenyl)benzo[d]oxazol-5-yl)isobutyramide], the activity at 10 µM was under 200%. On the same count and under the same terms, under `O=C(Nc1ccc2oc(-c3ccc(Cl)cc3)nc2c1)c1ccc(F)cc1` [Example 96, N-(2-(4-chlorophenyl)benzo[d]oxazol-5-yl)-4-fluorobenzamide] stands under 200%; under `CCC(=O)Nc1ccc2oc(-c3ccc(C)cc3)nc2c1` [Example 115, N-(2-p-tolylbenzo[d]oxazol-5-yl)propionamide], over 401%. `CC(=O)Nc1ccc2oc(-c3ccc(C(F)(F)F)cc3)nc2c1` [Example 123, N-(2-(4-(trifluoromethyl)phenyl)benzo[d]oxazol-5-yl)acetamide]: the activity at 10 µM lay within 201 to 300%. Same read-out and setting: the result for `CCN(CC)c1ccc(-c2nc3ccccc3o2)cc1` [Example 143, 4-(benzo[d]oxazol-2-yl)-N,N-diethylaniline] reads 201 to 300%; that for `Cc1ccc(C(=O)Nc2ccc3oc(-c4ccc(Cl)cc4)nc3c2)cc1` [Example 90, N-(2-(4-chlorophenyl)benzo[d]oxazol-5-yl)-4-methylbenzamide], under 200%; that for `Clc1ccc2oc(-c3ccncc3)nc2c1` [Example 330, 5-chloro-2-(pyridin-4-yl)benzo[d]oxazole], under 200%. On the same count and under the same terms, the result for `CCN(CC)c1ccc(-c2nc3cc(NC(=O)c4ccc(OC)cc4)ccc3o2)cc1` [Example 65, N-(2-(4-(diethylamino)phenyl)benzo[d]oxazol-5-yl)-4-methoxybenzamide] reads under 200%.

The assay is the same for the next values; noted with them: luciferase level relative to control; H2K/mdx/Utro A reporter cells; compound 10 μM final concentration.
As to `Clc1ccc(-c2nc3cc4c(cc3o2)OCO4)cc1Cl` [Example 361, 2-(3,4-chlorophenyl)-5,6-methylenedioxybenzoxazole], the Activity result is given as “+ (Up to 200% relative to control)”.

The assay is the same for the next values; noted with them: luciferase reporter assay in murine H2K cells; classified relative to control.
Regarding `Cc1ccc2nc(-c3ccc(N)cc3)sc2c1` [Example 664], the Activity entry was “++ (Between 201% and 300% relative to control)”. The same measure, in the same setting: under `Nc1ccc(Oc2ccc(-c3nc4ccccc4[nH]3)cc2)cc1` [Example 557] stands “++++ (Above 401% relative to control)”; under `CCC(=O)Nc1ccc2oc(-c3cccc(C)c3)nc2c1` [Example 668], “++ (Between 201% and 300% relative to control)”; under `CCC(C)C(=O)Nc1ccc(-c2nc3ccccc3[nH]2)cc1` (stereo not shown) [Example 631], “++++ (Above 401% relative to control)”. With `Cc1ccc2nc(-c3cccc(NC(=O)c4ccco4)c3)[nH]c2c1` [Example 538], the Activity entry is given as “+ (Up to 200% relative to control)”.

Take `Cc1ccnc(Nc2nc3ccccc3o2)n1` [Example 682]: the Activity entry was “++ (Between 201% and 300% relative to control)”. Consider `Cc1ccc(-c2nc3cc(N)ccc3o2)cc1C` [Example 603], for which the Activity result is “+++ (Between 301% and 400% relative to control)”.

On to `O=C(Nc1ccc(-c2nc3ncccc3o2)cc1)c1ccccc1Cl` [Example 641], for which the Activity entry is “+++ (Between 301% and 400% relative to control)”. Same read-out and setting: under `O=C(Nc1nc2ccccc2s1)c1cc(Br)ccc1Cl` [Example 671] stands “++ (Between 201% and 300% relative to control)”; under `CNS(=O)(=O)c1ccc2nc(NC(=O)c3cccs3)sc2c1` [Example 687], “++ (Between 201% and 300% relative to control)”. Same read-out and setting: under `CCC(C)c1ccc2oc(-c3ccc(N)cc3)nc2c1` (stereo not shown) [Example 609] stands “+++ (Between 301% and 400% relative to control)”. In the case of `O=C(Nc1ccc(-c2nc3ccccc3[nH]2)cc1)c1ccccc1` [Example 497], the Activity entry is given as “+ (Up to 200% relative to control)”.

Consider `COc1ccc(-c2nc3ccccc3s2)cc1NC(C)=O` [Example 542], for which the Activity entry is “++ (Between 201% and 300% relative to control)”. The same measure, in the same setting: under `COc1ccc(OCc2nc3ccccc3[nH]2)cc1` [Example 473] stands “++ (Between 201% and 300% relative to control)”; under `Cc1nn(-c2nc3ccccc3[nH]2)c(N)c1-c1ccccc1` [Example 659], “+++ (Between 301% and 400% relative to control)”; under `O=C(Nc1nc2ccccc2s1)c1cc2ccccc2o1` [Example 626], “++++ (Above 401% relative to control)”. On the same count and under the same terms, the result for `Cc1ccc(-c2nc3ccccc3[nH]2)cc1NC(=O)C(F)(F)F` [Example 568] reads “+++ (Between 301% and 400% relative to control)”; that for `Cc1ccc2oc(-c3cccs3)nc2c1` [Example 612], “++ (Between 201% and 300% relative to control)”; that for `O=C(Nc1cccc(-c2nc3ccccc3[nH]2)c1)c1cccs1` [Example 504], “+ (Up to 200% relative to control)”. On the same count and under the same terms, the result for `CC(=O)Nc1cccc(-c2ccc3oc(-c4ccc(Cl)cc4)nc3c2)c1` [Example 575] reads “++++ (Above 401% relative to control)”; that for `CC(=O)Nc1cccc(-c2nc3ccccc3s2)c1` [Example 513], “+ (Up to 200% relative to control)”; that for `Cc1ccc2nc(-c3ccc(NC(=O)c4ccccc4C(=O)O)cc3)sc2c1` [Example 545], “+ (Up to 200% relative to control)”.

For the compound `Clc1ccc(OCc2nc3ccccc3n2Cc2ccccc2Cl)c(Cl)c1` [Example 465], the Activity entry is given as “+ (Up to 200% relative to control)”. On the same count and under the same terms, under `Clc1ccc(OCc2nc3ccccc3[nH]2)c(Cl)c1` [Example 461] stands “+++ (Between 301% and 400% relative to control)”; under `COc1ccccc1-c1nc2ccccc2s1` [Example 522], “+ (Up to 200% relative to control)”.

For the origin of these results see patent US8501713B2, “Drug combinations for the treatment of duchenne muscular dystrophy” (Summit Corporation PLC, priority 2007, dated 2013).
